The record followed here is patent US20050085441A1, “Use of soluble monovalent oligosaccharides as inhibitors of HIV-1 fusion and replication” (priority 2002, published 2005).

Experiment [1] deals with HIV-1 laboratory strain NL4.3. Nature of the experiment: Viral p24 antigen release, HIV-1 NL4.3 in MT-2 cells. In kind it is cell-based. The conditions noted are these: for reduction of production of p24: day 7 post-infection; for effect on release of antigen p24: 0.5-50.0 mM tested, concentration not given.
Experiment [2] relates to HIV-1 clinical isolate 1936. Nature of the experiment: Replication of T-tropic clinical isolate 1936 in MT-2 cells (p24 release). In kind it is cell-based.
The next experiment concerns HIV-2 isolate CBL23. The experiment is described as follows: Replication of HIV-2 clinical isolate CBL23 in MT-2 cells. The format is cell-based. Particulars: single oligosaccharide. On the procedure: The effect of the oligosaccharides was also tested on the replication of CLB23, a T -tropic clinical isolate of HIV-2.
In experiment [3] the test system is HIV-1 clinical isolate ME46. The experiment is described as follows: Replication of T-tropic clinical isolate ME46 in MT-2 cells (p24 release).
Text: MT-2 cells were infected as described above, and the course of infection was followed by the release of p24.
Experiment [4] deals with HIV-1 laboratory strain NL4.3. Nature of the experiment: Syncytia formation in MT-2 cells infected with HIV-1 NL4.3. In kind it is cell-based.
Experiment [5] concerns HIV-1 M-tropic strain Ba-L. The experiment is described as follows: Replication of M-tropic strain Ba-L in human peripheral blood monocytes (p24 release). Particulars: 0.5, 5 and 25 mM, MOI 0.001.
Experiment [6] deals with vesicular stomatis virus (VSV) G protein. In kind it is cell-based, vesicular stomatitis virus.
The test system of experiment [7] is HIV-1 T-tropic envelope protein of HXB2. The format is cell-based. Particulars: virions with HIV HXB2 envelope protein, MT-2 cells.
A further experiment has as its system HIV-1 (strain NL4.3). Nature of the experiment: HIV-1 replication in vivo in NOD-SCID huPBL mice (p24, viral load in peritoneal wash).

Regarding `OC[C@H]1O[C@@H](O[C@H]2[C@H](O)[C@@H](O)[C@H](O)O[C@@H]2CO)[C@H](O)[C@@H](O)[C@H]1O` [lactose, o-β-D-galactopyranosyl-(1-4)-β-D-glucopyranose], the “reduction of production of p24” value in experiment [1] (5 mM lactose) was determined as 2 fold. In addition, in experiment [1], the “effect on release of antigen p24” value is reported as “less potent than globotriose”. For the same compound, the “effect on replication of isolate 1936” value in [2] (25 mM) is given as “practically did not affect”. Besides, the “inhibition of replication of HIV-2 isolate CBL23” value in the experiment with HIV-2 isolate CBL23 is “basically non-effective”. Also, the “effect on replication of isolate ME46” value in experiment [3] (15 mM) was “minor effect”. Moreover, the “inhibition of replication of isolate ME46” value in [3] (25 mM) was “ten-fold”. For the same compound, the “effect on formation of syncytia” value in [4] (0.5-50.0 mM tested, concentration not given) is listed as “weaker than that exhibited by globotriose”. Moreover, in experiment [5], the “inhibition of replication of strain Ba-L (p24 release)” value (from here on “inhibition … (p24 release)”) was “ineffective”. Further, the “expression of the luciferase reporter” value in experiment [6] is listed as “no effect was observed”; in experiment [7], “inhibited”.

On to `OC[C@H]1O[C@H](O[C@@H]2[C@H](O)[C@@H](O)[C@H](O[C@H]3[C@H](O)[C@@H](O)C(O)O[C@@H]3CO)O[C@@H]2CO)[C@H](O)[C@@H](O)[C@H]1O` (stereo partly drawn) [globotriose, galactose α1-4galactose β1-4glucose], for which the “release of antigen p24” value in experiment [1] (5 mM or lower) is given as “not at 5 mM or lower”; in experiment [1] (25 mM, effect maximum at days 3 and 7, recovered at day 10 post-infection) it was “inhibited”. In experiment [1] (25 mM globotriose), the “reduction of production of p24” value was 5 fold. Besides, the “inhibition of replication of isolate 1936” value in [2] (5 mM and above) was “more than ten-fold”. Moreover, the “inhibition of replication of HIV-2 isolate CBL23” value with HIV-2 isolate CBL23 is “much weaker than for the HIV-1 isolates”. In addition, the “inhibition of replication of isolate ME46” value in [3] (5 mM and above) is “more than ten-fold”. Moreover, the “formation of syncytia (number and size)” value in experiment [4] (25 mM, MT-2 cells, NL4.3) is “completely inhibited”. In addition, in experiment [4] (concentrations lower than 25 mM), the “size of syncytia (number of nuclei)” value is “decreased”. For the same compound, the “inhibition … (p24 release)” value in [5] was “did not inhibit”. The “expression of the luciferase reporter” value in [6] is reported as “no effect was observed except for the highest concentration”; in experiment [7], “inhibited”. Also, the “HIV-1 replication (p24 and viral load)” value is “strongly inhibited” in the experiment with HIV-1 (strain NL4.3) (globotriose 15 mg/mouse i.p. single dose, days 2 and 6 post infection); “diminished replication” with HIV-1 (strain NL4.3) (repeat experiment, single dose at beginning of infection, day 6).

Consider `CC(=O)N[C@H]1[C@H](O[C@H]2[C@@H](O)[C@@H](CO)O[C@@H](O[C@H]3[C@H](O)[C@@H](O)C(O)O[C@@H]3CO)[C@@H]2O)O[C@H](CO)[C@@H](O)[C@@H]1O[C@@H]1O[C@H](CO)[C@H](O)[C@H](O)[C@H]1O` (stereo partly shown) [lacto-N-tetraose, reference compound], for which, in [1], the “effect on release of antigen p24” value is reported as “ineffective”. In experiment [5], the “inhibition … (p24 release)” value is “ineffective”.
